From ChEMBL document CHEMBL5661983, “The selective anaplastic lymphoma receptor tyrosine kinase inhibitor ASP3026 induces tumor regression and prolongs survival in non-small cell lung cancer model mice” (Mol Cancer Ther, 2014)
Active and inactive are the calls of the source. The calls are words filed in the database; no cut-off is given here.

How the values were obtained:
NCI-H2228 [1] = assay: Antiproliferative activity against human NCI-H2228 cell spheroids assessed as reduction in cell growth measured after 5 days by celltiter-glo luminescent cell viability assay; assay type: functional, cell-based; conditions: NCI-H2228, 120 h
[2] = target: T1, ALK tyrosine kinase receptor (Homo sapiens, UniProt Q9UM73); assay: Inhibition of ALK in human NCI-H2228 cells assessed as reduction in AKT phosphorylation by measuring phosphorylated AKT level at 100 nmol/L measured after 4 hrs by Western blot analysis relative to control; assay type: cell-based; design: scale not given: the % may be the effect or the level left
Target sequence in this assay (Q9UM73 19-1620 limits assumed): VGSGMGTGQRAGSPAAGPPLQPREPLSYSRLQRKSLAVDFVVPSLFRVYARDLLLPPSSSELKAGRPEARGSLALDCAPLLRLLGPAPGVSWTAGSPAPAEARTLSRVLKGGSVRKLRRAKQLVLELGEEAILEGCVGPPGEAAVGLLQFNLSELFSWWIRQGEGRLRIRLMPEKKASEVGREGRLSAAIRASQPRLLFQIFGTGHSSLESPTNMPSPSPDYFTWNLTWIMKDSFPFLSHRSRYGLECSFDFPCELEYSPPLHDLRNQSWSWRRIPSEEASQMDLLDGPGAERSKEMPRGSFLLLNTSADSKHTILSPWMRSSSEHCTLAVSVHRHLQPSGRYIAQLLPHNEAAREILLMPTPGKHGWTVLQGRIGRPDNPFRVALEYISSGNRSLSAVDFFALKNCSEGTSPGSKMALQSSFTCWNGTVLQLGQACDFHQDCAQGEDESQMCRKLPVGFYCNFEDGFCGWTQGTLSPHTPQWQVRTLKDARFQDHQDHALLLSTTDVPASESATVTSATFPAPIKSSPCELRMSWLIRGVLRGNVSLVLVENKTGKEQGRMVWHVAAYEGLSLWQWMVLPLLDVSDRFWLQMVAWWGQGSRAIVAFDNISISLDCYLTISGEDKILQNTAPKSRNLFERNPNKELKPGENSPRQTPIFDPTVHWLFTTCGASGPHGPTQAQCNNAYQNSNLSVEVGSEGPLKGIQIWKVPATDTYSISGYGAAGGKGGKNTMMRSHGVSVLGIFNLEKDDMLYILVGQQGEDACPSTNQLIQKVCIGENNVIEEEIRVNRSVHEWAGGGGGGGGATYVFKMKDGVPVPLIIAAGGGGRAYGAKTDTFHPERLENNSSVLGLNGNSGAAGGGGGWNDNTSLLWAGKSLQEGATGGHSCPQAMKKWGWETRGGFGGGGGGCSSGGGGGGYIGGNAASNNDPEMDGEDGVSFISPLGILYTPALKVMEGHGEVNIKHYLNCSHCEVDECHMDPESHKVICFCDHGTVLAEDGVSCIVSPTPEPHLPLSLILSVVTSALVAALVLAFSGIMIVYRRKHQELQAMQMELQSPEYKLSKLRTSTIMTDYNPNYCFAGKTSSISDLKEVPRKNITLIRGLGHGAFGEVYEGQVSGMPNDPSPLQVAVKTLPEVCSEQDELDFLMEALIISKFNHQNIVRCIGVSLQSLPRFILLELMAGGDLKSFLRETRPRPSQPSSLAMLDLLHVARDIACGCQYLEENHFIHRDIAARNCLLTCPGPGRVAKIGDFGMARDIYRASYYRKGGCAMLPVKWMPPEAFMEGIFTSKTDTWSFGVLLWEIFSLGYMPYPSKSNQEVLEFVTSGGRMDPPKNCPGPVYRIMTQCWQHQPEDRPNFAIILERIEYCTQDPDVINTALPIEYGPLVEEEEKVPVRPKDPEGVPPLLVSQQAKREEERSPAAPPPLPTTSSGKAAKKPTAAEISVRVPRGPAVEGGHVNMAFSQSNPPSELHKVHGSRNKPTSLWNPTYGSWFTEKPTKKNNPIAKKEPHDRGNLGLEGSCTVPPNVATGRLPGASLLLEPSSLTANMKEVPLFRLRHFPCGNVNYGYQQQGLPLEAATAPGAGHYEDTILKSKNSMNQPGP

[3] = target: T1, ALK tyrosine kinase receptor; assay: Inhibition of ALK in human NCI-H2228 cells assessed as reduction in AKT phosphorylation by measuring phosphorylated AKT level at 1000 nmol/L measured after 4 hrs by Western blot analysis relative to control; assay type: cell-based; design: scale not given: the % may be the effect or the level left
Target sequence in this assay (Q9UM73 19-1620 limits assumed): as above

[4] = target: T1, ALK tyrosine kinase receptor; assay: Inhibition of ALK in human NCI-H2228 cells assessed as reduction in ERK phosphorylation by measuring phosphorylated ERK level at 10 nmol/L measured after 4 hrs by Western blot analysis relative to control; assay type: cell-based; design: scale not given: the % may be the effect or the level left
Target sequence in this assay (Q9UM73 19-1620 limits assumed): as above

[5] = target: T1, ALK tyrosine kinase receptor; assay: Inhibition of ALK in human NCI-H2228 cells assessed as reduction in STAT3 phosphorylation by measuring phosphorylated STAT3 level at 10 nmol/L measured after 4 hrs by Western blot analysis relative to control; assay type: cell-based; design: scale not given: the % may be the effect or the level left
Target sequence in this assay (Q9UM73 19-1620 limits assumed): as above

[6] = target: T1, ALK tyrosine kinase receptor; assay: Inhibition of ALK in human NCI-H2228 cells assessed as reduction in STAT3 phosphorylation by measuring phosphorylated STAT3 level at 100 nmol/L measured after 4 hrs by Western blot analysis relative to control; assay type: cell-based; design: scale not given: the % may be the effect or the level left
Target sequence in this assay (Q9UM73 19-1620 limits assumed): as above

[7] = target: T1, ALK tyrosine kinase receptor; assay: Inhibition of ALK in human NCI-H2228 cells assessed as reduction in STAT3 phosphorylation by measuring phosphorylated STAT3 level at 1000 nmol/L measured after 4 hrs by Western blot analysis relative to control; assay type: cell-based; design: scale not given: the % may be the effect or the level left
Target sequence in this assay (Q9UM73 19-1620 limits assumed): as above

[8] = target: T1, ALK tyrosine kinase receptor
[9] = target: Hepatocyte growth factor receptor (Homo sapiens, UniProt P08581); assay: Inhibition of human N-terminal GST-fused MET cytoplasmic domain ([956 to 1390(end) residues) expressed in baculovirus expression system using Srctide as substrate measured after 1 hr by off-chip mobility shift assay relative to control
Sequence of Hepatocyte growth factor receptor (P08581 whole entry, the tested form may be a part): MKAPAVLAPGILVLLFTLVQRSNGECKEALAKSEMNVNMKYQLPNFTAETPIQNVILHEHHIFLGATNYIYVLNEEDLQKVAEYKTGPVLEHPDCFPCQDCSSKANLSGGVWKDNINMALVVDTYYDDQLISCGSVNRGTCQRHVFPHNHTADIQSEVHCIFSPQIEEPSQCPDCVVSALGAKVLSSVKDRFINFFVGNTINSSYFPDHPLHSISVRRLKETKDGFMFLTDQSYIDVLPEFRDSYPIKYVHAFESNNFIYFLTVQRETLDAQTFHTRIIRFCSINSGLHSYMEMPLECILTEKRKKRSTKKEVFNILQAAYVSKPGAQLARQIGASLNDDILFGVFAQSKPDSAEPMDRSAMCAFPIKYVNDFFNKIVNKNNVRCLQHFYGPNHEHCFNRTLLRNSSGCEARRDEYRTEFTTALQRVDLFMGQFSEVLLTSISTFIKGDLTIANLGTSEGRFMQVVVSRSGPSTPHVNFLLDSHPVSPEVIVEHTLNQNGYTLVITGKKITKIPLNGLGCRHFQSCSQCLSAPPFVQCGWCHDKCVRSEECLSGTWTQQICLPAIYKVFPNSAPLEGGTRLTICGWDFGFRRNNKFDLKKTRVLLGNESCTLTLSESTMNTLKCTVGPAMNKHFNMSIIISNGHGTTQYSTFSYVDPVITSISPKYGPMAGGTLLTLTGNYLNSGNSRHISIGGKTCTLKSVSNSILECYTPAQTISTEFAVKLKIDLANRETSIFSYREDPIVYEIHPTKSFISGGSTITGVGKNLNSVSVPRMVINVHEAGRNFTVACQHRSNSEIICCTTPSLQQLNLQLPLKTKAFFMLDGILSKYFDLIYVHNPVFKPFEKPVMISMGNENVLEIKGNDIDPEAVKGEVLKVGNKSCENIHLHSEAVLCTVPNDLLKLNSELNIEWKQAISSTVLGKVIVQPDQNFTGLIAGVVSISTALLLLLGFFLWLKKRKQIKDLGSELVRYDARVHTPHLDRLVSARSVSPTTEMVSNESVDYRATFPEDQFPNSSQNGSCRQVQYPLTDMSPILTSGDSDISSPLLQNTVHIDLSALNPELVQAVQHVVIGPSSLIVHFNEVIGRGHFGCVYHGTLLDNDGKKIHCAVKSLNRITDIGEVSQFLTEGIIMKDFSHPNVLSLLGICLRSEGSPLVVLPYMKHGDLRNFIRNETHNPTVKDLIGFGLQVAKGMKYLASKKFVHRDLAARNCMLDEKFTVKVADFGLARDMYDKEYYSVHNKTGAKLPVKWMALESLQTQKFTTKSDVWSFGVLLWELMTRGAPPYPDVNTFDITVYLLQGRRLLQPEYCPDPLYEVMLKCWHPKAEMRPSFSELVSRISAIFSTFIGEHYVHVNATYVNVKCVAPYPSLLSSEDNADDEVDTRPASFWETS

NCI-H2228 [10] = assay: Antitumor activity against human NCI-H2228 cells xenografted in NOD.CB17-Prkdcscid/J mouse assessed as tumor growth inhibition at 10 mg/kg, po administered once daily for 2 weeks relative to control; assay type: functional; conditions: NCI-H2228, 336 h, read-out: TGI
NCI-H2228 [11] = assay: Antitumor activity against human NCI-H2228 cells xenografted in NOD.CB17-Prkdcscid/J mouse assessed as tumor regression at 1 mg/kg, po administered once daily for 2 weeks relative to control; assay type: functional
NCI-H2228 [12] = assay: Antitumor activity against human NCI-H2228 cells xenografted in NOD.CB17-Prkdcscid/J mouse assessed as tumor regression at 30 mg/kg, po administered once daily for 2 weeks relative to control; assay type: functional
[13] = Cmax in human NCI-H2228 cell xenografted NOD.CB17-Prkdcscid/J mouse plasma at 10 mg/kg/day for 5 days by HPLC-MS analysis; assay type: ADME, organism-based; conditions: route po, time 5 day
[14] = Tmax in human NCI-H2228 cell xenografted NOD.CB17-Prkdcscid/J mouse plasma at 1 mg/kg/day for 5 days by HPLC-MS analysis; assay type: ADME, organism-based; conditions: route po, time 5 day
[15] = AUC (0 to 24 hrs) in human NCI-H2228 cell xenografted NOD.CB17-Prkdcscid/J mouse plasma at 1 mg/kg/day for 5 days by HPLC-MS analysis; assay type: ADME, organism-based; conditions: route po, time 5 day
[16] = Cmax in human NCI-H2228 cell xenografted NOD.CB17-Prkdcscid/J mouse tumor at 3 mg/kg/day for 5 days by HPLC-MS analysis; assay type: ADME, organism-based, Neoplasm; conditions: route po, time 5 day
[17] = Tmax in human NCI-H2228 cell xenografted NOD.CB17-Prkdcscid/J mouse tumor at 3 mg/kg/day for 5 days by HPLC-MS analysis; assay type: ADME, organism-based, Neoplasm; conditions: route po, time 5 day
[18] = Tmax in human NCI-H2228 cell xenografted NOD.CB17-Prkdcscid/J mouse tumor at 10 mg/kg/day for 5 days by HPLC-MS analysis; assay type: ADME, organism-based, Neoplasm; conditions: route po, time 5 day
[19] = AUC (0 to 24 hrs) in human NCI-H2228 cell xenografted NOD.CB17-Prkdcscid/J mouse tumor at 3 mg/kg/day for 5 days by HPLC-MS analysis; assay type: ADME, organism-based, Neoplasm; conditions: in vivo, po, 120 h, time 5 day
[20] = AUC (0 to 24 hrs) in human NCI-H2228 cell xenografted NOD.CB17-Prkdcscid/J mouse tumor at 10 mg/kg/day for 5 days by HPLC-MS analysis; assay type: ADME, organism-based, Neoplasm; conditions: in vivo, po, 120 h, time 5 day
[21] = Ratio of Cmax in human NCI-H2228 cell xenografted NOD.CB17-Prkdcscid/J mouse tumor to plasma at 1 mg/kg/day for 5 days by HPLC-MS analysis; assay type: ADME, organism-based; conditions: tumor and plasma, route po, time 5 day
Mus musculus = assay: Antitumor activity against hEML4-ALK transgenic C57BL/6J mouse assessed as reduction in tumor mass at 100 mg/kg, po administered daily for 10 days and measured on day 11 by computed tomography scan analysis; assay type: functional, organism-based; conditions: time 11.0 day
[22] = Ratio of drug level in tumor to plasma of hEML4-ALK transgenic C57BL/6J mouse at 10 to 100 mg/kg, po administered daily for 10 days and measured 24 hrs post-last dose; assay type: ADME, organism-based; conditions: dose 10-100 mg/kg, time 11 day
NCI-H2228-Luc [23] = assay: Antitumor activity against human NCI-H2228-Luc cells intrapleurally xenografted in NOD.CB17-Prkdcscid/J mouse assessed as median survival time at 10 mg/kg, po administered once daily for 7 weeks starting from 14 days post-cell inoculation measured up to 90 days (reference value: 39 day); assay type: functional; conditions: time 90 day
NCI-H2228-Luc [24] = assay: Antitumor activity against human NCI-H2228-Luc cells intrahepatically xenografted in NOD.CB17-Prkdcscid/J mouse assessed as reduction in tumor burden by measuring bioluminescence emission at 30 mg/kg, po administered once daily for 3 weeks starting from 14 days post-cell inoculation and measured on day 19 by bioluminescent imaging analysis (reference value: 3.3 x 10^8 photon/sec); assay type: functional; conditions: time 19 day
Activated CDC42 kinase 1 = Activated CDC42 kinase 1 (Homo sapiens, UniProt Q07912)
[25] = target: Epidermal growth factor receptor (Homo sapiens, UniProt P00533, L858R)
Sequence of Epidermal growth factor receptor (P00533 25-1210 L858R limits assumed): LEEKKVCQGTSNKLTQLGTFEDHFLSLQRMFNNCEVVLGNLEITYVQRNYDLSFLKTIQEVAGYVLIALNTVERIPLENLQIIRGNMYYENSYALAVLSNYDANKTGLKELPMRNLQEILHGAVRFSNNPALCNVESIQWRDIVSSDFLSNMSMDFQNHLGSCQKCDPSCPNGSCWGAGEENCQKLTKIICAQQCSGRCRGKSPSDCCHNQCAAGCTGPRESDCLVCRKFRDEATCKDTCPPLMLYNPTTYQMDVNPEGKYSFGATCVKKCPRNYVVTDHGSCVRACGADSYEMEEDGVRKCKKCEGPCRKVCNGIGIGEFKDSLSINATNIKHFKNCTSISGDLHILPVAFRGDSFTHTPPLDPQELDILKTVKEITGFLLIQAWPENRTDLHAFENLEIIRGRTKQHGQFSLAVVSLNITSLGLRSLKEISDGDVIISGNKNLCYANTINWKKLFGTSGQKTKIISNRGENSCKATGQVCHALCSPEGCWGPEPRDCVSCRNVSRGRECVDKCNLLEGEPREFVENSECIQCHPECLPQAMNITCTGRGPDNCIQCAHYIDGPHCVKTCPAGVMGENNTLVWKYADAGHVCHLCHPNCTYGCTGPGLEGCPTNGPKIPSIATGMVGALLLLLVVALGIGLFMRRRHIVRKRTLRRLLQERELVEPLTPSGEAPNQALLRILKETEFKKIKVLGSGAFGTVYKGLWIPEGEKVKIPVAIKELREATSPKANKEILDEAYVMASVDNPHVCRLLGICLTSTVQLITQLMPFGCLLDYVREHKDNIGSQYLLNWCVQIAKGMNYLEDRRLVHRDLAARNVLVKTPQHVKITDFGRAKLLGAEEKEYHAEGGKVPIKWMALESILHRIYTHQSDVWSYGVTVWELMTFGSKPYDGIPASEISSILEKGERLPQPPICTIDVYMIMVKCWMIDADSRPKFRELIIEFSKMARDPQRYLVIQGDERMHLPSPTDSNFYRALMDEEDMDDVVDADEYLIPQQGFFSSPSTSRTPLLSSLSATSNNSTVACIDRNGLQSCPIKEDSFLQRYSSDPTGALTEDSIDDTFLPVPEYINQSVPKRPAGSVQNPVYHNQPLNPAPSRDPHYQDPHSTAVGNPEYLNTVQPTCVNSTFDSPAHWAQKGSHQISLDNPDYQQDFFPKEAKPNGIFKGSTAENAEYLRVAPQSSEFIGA

Ephrin type-A receptor 2 = Ephrin type-A receptor 2 (Homo sapiens, UniProt P29317)
Ephrin type-B receptor 4 = Ephrin type-B receptor 4 (Homo sapiens, UniProt P54760)
[26] = target: Tyrosine-protein kinase Lck (Homo sapiens, UniProt P06239)
Sequence of Tyrosine-protein kinase Lck (P06239 whole entry): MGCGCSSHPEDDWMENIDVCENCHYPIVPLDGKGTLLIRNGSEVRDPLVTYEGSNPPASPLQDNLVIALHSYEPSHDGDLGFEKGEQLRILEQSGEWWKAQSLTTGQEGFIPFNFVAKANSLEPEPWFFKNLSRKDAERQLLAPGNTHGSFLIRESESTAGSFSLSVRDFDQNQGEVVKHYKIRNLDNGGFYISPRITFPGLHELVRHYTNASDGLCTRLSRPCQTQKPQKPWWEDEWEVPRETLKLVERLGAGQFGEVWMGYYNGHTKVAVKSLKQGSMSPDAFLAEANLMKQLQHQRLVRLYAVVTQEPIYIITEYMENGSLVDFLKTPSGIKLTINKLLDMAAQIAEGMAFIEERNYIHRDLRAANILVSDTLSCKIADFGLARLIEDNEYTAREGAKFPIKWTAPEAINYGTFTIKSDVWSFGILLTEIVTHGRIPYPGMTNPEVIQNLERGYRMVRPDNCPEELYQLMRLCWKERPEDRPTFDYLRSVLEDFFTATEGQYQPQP

[27] = target: Tyrosine-protein kinase Mer (Homo sapiens, UniProt Q12866)
[28] = target: Non-receptor tyrosine-protein kinase TNK1 (Homo sapiens, UniProt Q13470)
[29] = target: High affinity nerve growth factor receptor (Homo sapiens, UniProt P04629)
in vivo = conditions: NOD.CB17-Prkdcscid/J, mouse, tumour, po, 3 mg/kg

COc1cc(N2CCC(N3CCN(C)CC3)CC2)ccc1Nc1ncnc(Nc2ccccc2S(=O)(=O)C(C)C)n1 [ASP-3026]
IC50 (NCI-H2228 [1]): 64.8 nM
Activity [2]: 56%
Activity [3]: 20%
Activity [4]: 101%
Activity [5]: 88%
Activity [6]: 52%
Activity [7]: 46%
IC50 [8]: 3.5 nM
IC50 [9]: > 1000 nM
inhibition in vivo at 10 mg/kg (NCI-H2228 [10]): > 100%
Activity (NCI-H2228 [11]): 0%
Activity (NCI-H2228 [12]): 78%
Cmax [13]: 508 ng/mL
Tmax [14]: 4 h
AUC at 120 h [15]: 630 ng·h/mL
Cmax [16]: 2270 ng/g
Tmax [17]: 4 h
Tmax [18]: 4 h
AUC [19]: 34400 ng·h/g
AUC [20]: 121000 ng·h/g
Kp at 120 h [21]: 19
Activity (Mus musculus): Active
Kp at 264 h [22]: > 100
MST (NCI-H2228-Luc [23]): 79 days
Activity (NCI-H2228-Luc [24]): 7.7 10^6No_unit
IC50 (Activated CDC42 kinase 1): 5.8 nM
IC50 [25]: 86 nM
IC50 (Ephrin type-A receptor 2): > 1000 nM
IC50 (Ephrin type-B receptor 4): > 1000 nM
IC50 [26]: > 100 nM
IC50 [27]: > 1000 nM
IC50 [28]: 26.8 nM
IC50 [29]: > 1000 nM
Kp at 120 h (in vivo): 19
